Data on 3 compounds can be found in patent publication US9688638B2, “Opioid agonists and uses thereof” (priority 2013, dated 2017).

Read-outs that look alike come from different tables or passages of the source.

Series [1] concerns the target MOR (Homo sapiens (Human), UniProt P35372). Put plainly: cAMP accumulation assay, forskolin-stimulated CHO-K1 cells stably expressing MOR. The format is cell-based. The following applies: inhibition of cAMP accumulation. The procedure: (§1) Inhibition of cAMP accumulation by select compounds was measured in forskolin-stimulated CHO-K1 cells stably expressing KOR. CHO-K1 cells stably expressing KOR were harvested using Invitrogen Cell Dissociation Buffer, and then centrifuged at 1200 rpm for five minutes. The supernatant was aspirated and cells were resuspended in assay buffer to a density of 4×10^5 cells/mL. 25 μL of cells were added into a white half-area 96 well plate. Fourteen point serial dilutions of test compounds were carried out in assay buffer (PBS with 0.5 mM IBMX). Ketazocine was used as a positive control for each assay. 12.5 μL of compound was added to the cells in duplicate for each test concentration. The cells were then stimulated with 12.5 μL forskolin at a final concentration 20 μM. Cells were incubated for 45 minutes in a 37° C., 5% CO2 water jacketed incubator. CisBio HTRF cAMP assay reagent was used for cAMP quantitation. Two hours after substrate addition, signal at 665/615 nm was measured using the Perkin Elmer Victor X4 HTRF reader. Data analysis was done using GraphPad Prism, sigmoidal dose-response (variable slope) curve fitting.
Using a similar approach, inhibition of cAMP accumulation by select compounds was also determined in forskolin-simulated CHO-K1 cells stably expressing MOR (wherein for this assay a density of 8×10^5 cells/mL was used and the positive control was DAMGO). Certain compounds of the present invention were tested as described above.
Background: cAMP levels reflect the balance of adenylyl cyclase and phosphodiesterase activity.

In series [2] the target is recombinant human mu (MOR) opioid receptor (Homo sapiens (Human), UniProt P35372). Put plainly: Radioligand competition binding assay, mu opioid receptor. The following applies: [3H]Naloxone 4 nM, CHO-K1 membranes. As for the experimental part:
The binding affinities of certain compounds of the present invention were evaluated using radioligand binding assays in membranes prepared from CHO-K1 cells expressing recombinant human kappa (KOR) or mu (MOR) opioid receptors.
Competition binding experiments were conducted by incubating membrane protein to equilibrium in triplicate in the presence of a fixed concentration of radioligand and increasing concentrations of test compound for evaluation of binding to KOR or single concentration (10 μM) of test compound for evaluation of binding to MOR in 101 μL final volume. The radioligands used were specific for each receptor type, and the assay conditions are described in Table 1. Following incubations, the membranes were rapidly filtered through GF/B filter plate (presoaked with 0.5% polyethyleneimine), washed five times with cold 50 mM Tris-HCl, pH 7.5, and the bound radioactivity was then measured by liquid scintillation counting. Non-specific binding was measured in the presence of excess ligand; this value was subtracted from the total binding to yield the specific binding at each test concentration.
Ki (affinity of test compound) was obtained using the Cheng Prusoff correction using experimental Kd (affinity of radioligand) values that were previously determined under these assay conditions. For MOR binding, compounds were tested at one concentration, 10 μM, to evaluate its ability to inhibit specific radioligand binding. The values are expressed as percent inhibition of specific binding and greater than 50% inhibition of binding was considered to be significant.
With respect to determining MOR binding, an approach similar to one used for KOR binding was used.
In general terms: In a radioligand displacement assay an active substance lowers the binding of a labelled ligand.

In series [3] the test system is Swiss Albino or CD-1 male mice. Put plainly: Acetic acid writhing (AAW) analgesic assay. The format is in vivo. As for the experimental part: Approaches for evaluating analgesic activity of a compound of the present invention in vivo include a “writhing test.” Briefly, the compound to be tested is administered [by, for example, injection (e.g., subcutaneous injection)] to the mouse. Thereafter, a 0.5% acetic acid solution is administered (i.p.) to a mouse and the numbers of writhing responses are counted for twenty minutes. Antinociception is quantified as reduction in the number of writhes respective to vehicle.
An analgesic assay was used to determine whether a given compound can reduce and/or prevent visceral pain in mice. The assay utilizes Swiss Albino or CD-1 male mice (5-10 mice per group), each mouse being approximately 0.015-0.030 kg on the study day. Mice were treated according to standard protocols.
The animal was given an intraperitoneal (IP) injection of an irritant (acetic acid) that induces “writhing” which may include: contractions of the abdomen, twisting and turning of the trunk, arching of the back and the extension of the hindlimbs. Mice are given a single IP injection (0.1 mL/10 g bodyweight) of a 0.5% acetic acid solution. After the injection the animals were returned to their observation enclosure and their behavior was observed. Contractions were counted between 0 and 20 minutes after the injection. The animals were used once. In certain instances, the test articles were administered at multiple doses to determine a dose response curve.
Table 4 provides the results for certain compounds of the present invention that were administered subcutaneously. Table 5 provides the results for certain compounds of the present invention that were administered orally.
A general note: An intraperitoneal irritant provokes the stretching counted in writhing tests.

In series [4] the target is recombinant human kappa (KOR) opioid receptor (Homo sapiens (Human), UniProt P41145). Put plainly: biochemical. The format is binding. The following applies: Cheng Prusoff correction; [3H]Diprenorphine 1 nM, CHO-K1 membranes; read-out: Kappa receptor binding Ki.
For series [5], the target named is KOR (Homo sapiens (Human), UniProt P41145). Put plainly: cAMP accumulation assay, forskolin-stimulated CHO-K1 cells stably expressing KOR. The format is cell-based. As to conditions: inhibition of cAMP accumulation, forskolin 20 μM; read-out: EC50 cAMP (nM)-KOR. As for the experimental part: as §1
The test system of series [6] is Male Swiss Albino mice. Put plainly: Locomotor activity. The following applies: oral, 30 min pre-dose, 20 min observation. The class given is in vivo. As for the experimental part:
The locomotor activity (LMA) model may be conducted to measure changes in activity following test article administration, which may be used to assess the CNS effects of the drug. In brief, at a predetermined time post-dose, rats are placed into observation chambers which are equipped with infrared photocells that can sense motion in the x, y, and z planes. Activity is measured as the number of photobeam breaks in a given plane (horizontal or vertical) or total distance traveled.
Male Swiss Albino mice were treated orally with vehicle (0.5% HPMC+0.1% Tween80), ketazocine, Compound 12 (0.3, 3 and 30 mg/kg) or Compound 20 (0.3, 3 and 30 mg/kg) thirty minutes prior to placement in the locomotor activity chamber. Total distance traveled was measured over the twenty minute observation time following placement in the locomotor activity chamber. Data are normalized relative to percent distance traveled in the vehicle group. The efficacy of Compound 12 (reported as percent distance traveled in comparison to vehicle) was 88.85%, 83.74% and 0.08% at 0.3, 3 and 30 mg/kg dosages, respectively, while the locomotor activity of Compound 20 (reported as percent distance traveled in comparison to vehicle) was 100%, 88% and 0.03% at 0.3, 3 and 30 mg/kg dosages, respectively.

A word on the EC50: it is the concentration giving half of the maximal effect. As a reminder, the Ki is the dissociation constant of the complex between target and ligand, obtained from inhibition or displacement. Turning to `COCCOCCOCCOCCOCCNc1ccc(Nc2ccc3c(c2)[C@]2(C)CCN(CC4CC4)[C@H](C3=O)[C@@H]2C)cc1` [Compound 12, (2S,6R,11R)-8-((4-(2,5,8,11,14-pentaoxahexadecan-16-ylamino)phenyl)amino)-3-(cyclopropylmethyl)-6,11-dimethyl-3,4,5,6-tetrahydro-2,6-methanobenzo[d]azocin-1(2H)-one], the EC50 stood at 189 nM in series [1] and 7 nM in series [5]. Moreover, the values for the Ki in series [2] and in series [4] were 58.5 nM and 5 nM, respectively. Also, the inhibition in vivo at 0.1 mg/kg in series [3] (Mus musculus, po, 20 min, oral, 0.1 mg/kg, read-out: AAW % Efficacy) came to 22.5%. The inhibition in vivo at 1 mg/kg in series [3] (Mus musculus, po, 20 min, oral, 1 mg/kg, read-out: AAW % Efficacy) stood at 56.9%. In series [3] (Mus musculus, po, 20 min, oral, read-out: AAW % Efficacy), the inhibition in vivo at 10 mg/kg is 97.2%. Further, the “AAW % Efficacy” value was 68.6% in series [3] (subcutaneous, 3 mg/kg) and 100.0% in series [3] (subcutaneous, 30 mg/kg). In addition, the “AAW percent efficacy, outlier data removed” value in series [3] (subcutaneous, 3 mg/kg, outlier data removed) stood at 65.09. In addition, the “percent distance traveled in comparison to vehicle” value in series [6] (0.3 mg/kg) turned out to be 88.85%; in series [6] (3 mg/kg), 83.74%; in series [6] (30 mg/kg), 0.08%.
On to `C[C@H]1[C@H]2C(=O)c3ccc(Nc4ccc(NCCOCCOCCOCCOCCOC(F)(F)F)cc4)cc3[C@]1(C)CCN2CC1CC1` [Compound 20, (2S,6R,11R)-3-(cyclopropylmethyl)-6,11-dimethyl-8-((4-((1,1,1-trifluoro-2,5,8,11,14-pentaoxahexadecan-16-yl)amino)phenyl)amino)-3,4,5,6-tetrahydro-2,6-methanobenzo[d]azocin-1(2H)-one], for which the concentration for a half-maximal effect (EC50) in series [1] is 128 nM; in series [5], 6.1 nM. Further, the inhibition constant (Ki) in series [2] came to 44.3 nM; in series [4] it was 2.86 nM. Moreover, the inhibition in vivo at 0.3 mg/kg in series [3] (Mus musculus, po, 20 min, oral, 0.3 mg/kg, read-out: AAW % Efficacy) was 39.1%. Also, in series [3] (Mus musculus, po, 20 min, oral, 3 mg/kg, read-out: AAW % Efficacy), the inhibition in vivo at 3 mg/kg stood at 79.5%. The inhibition in vivo at 30 mg/kg in series [3] (Mus musculus, po, 20 min, oral, 30 mg/kg, read-out: AAW % Efficacy) is 100%. Also, the inhibition in vivo at 10 mg/kg in series [3] (Mus musculus, sc, 20 min, subcutaneous, read-out: AAW % Efficacy) was determined as 88.1%. In addition, the figures for the “percent distance traveled in comparison to vehicle” value in series [6] (0.3 mg/kg), in series [6] (3 mg/kg) and in series [6] (30 mg/kg) were 100%, 88% and 0.03%, respectively.
For `C[C@H]1[C@H]2C(=O)c3ccc(NC(CO)CO)cc3[C@]1(C)CCN2CC1CC1` [Compound 24, (2S,6R,11R)-3-(cyclopropylmethyl)-8-((1,3-dihydroxypropan-2-yl)amino)-6,11-dimethyl-3,4,5,6-tetrahydro-2,6-methanobenzo[d]azocin-1(2H)-one], the EC50 in series [1] was found to be 598 nM; in series [5], 107 nM. In addition, the values for the Ki in series [2] and in series [4] were 1810 nM and 494 nM, respectively.
